Experimental data as given in US20230382924A1, “MODULATORS OF CYSTIC FIBROSIS TRANSMEMBRANE CONDUCTANCE REGULATOR” (VERTEX PHARMACEUTICALS INCORPORATED, priority 2020, published 2023).
Read-outs that look alike come from different tables or passages of the source.

What was measured:
[1] = amide bond, 13-membered ring, DMF
[2] = molecular target: T1, CFTR (Homo sapiens, UniProt P13569); assay: Membrane Potential Dye, Enteroid Assay B; assay type: cell-based; conditions: for EC50: read-out: Ent. B EC50
T1 sequence (P13569 with tags, fused parts or gaps DEL508-508): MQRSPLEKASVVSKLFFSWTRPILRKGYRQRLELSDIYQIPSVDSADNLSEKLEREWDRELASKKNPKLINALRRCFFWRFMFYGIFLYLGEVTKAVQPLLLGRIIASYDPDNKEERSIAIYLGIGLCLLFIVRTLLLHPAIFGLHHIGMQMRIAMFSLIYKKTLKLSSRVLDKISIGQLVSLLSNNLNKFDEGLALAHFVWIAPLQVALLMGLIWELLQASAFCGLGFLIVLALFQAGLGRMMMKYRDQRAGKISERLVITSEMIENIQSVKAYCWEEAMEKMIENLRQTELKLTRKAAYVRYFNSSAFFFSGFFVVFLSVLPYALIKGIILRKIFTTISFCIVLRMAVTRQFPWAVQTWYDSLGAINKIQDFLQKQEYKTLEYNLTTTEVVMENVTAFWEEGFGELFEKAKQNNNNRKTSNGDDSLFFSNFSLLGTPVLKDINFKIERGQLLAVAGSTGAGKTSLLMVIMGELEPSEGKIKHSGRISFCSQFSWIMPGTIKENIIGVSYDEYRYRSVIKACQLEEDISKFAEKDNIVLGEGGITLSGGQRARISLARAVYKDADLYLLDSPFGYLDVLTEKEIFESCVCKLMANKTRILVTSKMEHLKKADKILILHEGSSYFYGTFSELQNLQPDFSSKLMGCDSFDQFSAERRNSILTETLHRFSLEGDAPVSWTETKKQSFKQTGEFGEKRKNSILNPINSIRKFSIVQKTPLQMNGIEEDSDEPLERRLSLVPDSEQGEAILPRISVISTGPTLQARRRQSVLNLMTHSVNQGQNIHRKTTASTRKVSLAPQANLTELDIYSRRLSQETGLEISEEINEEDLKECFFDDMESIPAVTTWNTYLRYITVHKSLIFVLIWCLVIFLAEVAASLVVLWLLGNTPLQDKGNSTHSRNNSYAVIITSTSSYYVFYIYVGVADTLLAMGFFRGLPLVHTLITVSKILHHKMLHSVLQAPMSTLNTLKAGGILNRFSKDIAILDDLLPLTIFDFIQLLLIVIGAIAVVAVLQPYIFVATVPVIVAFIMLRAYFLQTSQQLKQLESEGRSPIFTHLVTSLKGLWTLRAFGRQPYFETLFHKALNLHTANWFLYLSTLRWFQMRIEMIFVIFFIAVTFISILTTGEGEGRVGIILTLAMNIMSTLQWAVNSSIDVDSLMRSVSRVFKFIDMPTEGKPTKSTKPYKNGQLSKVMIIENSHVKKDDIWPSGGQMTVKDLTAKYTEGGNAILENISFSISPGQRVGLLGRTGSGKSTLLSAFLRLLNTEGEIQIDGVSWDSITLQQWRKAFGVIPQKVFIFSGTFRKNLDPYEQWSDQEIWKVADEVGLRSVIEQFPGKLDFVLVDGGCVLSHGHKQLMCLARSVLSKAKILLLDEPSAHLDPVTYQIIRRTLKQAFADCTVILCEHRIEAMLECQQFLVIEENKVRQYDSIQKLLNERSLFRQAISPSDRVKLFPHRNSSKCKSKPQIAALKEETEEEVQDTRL
In short: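 Enteroid cells loaded 25 min at room temperature with 20 μM methyl oxonol plus 30 μM CaCCinh-A01 and 30 μM Chicago Sky Blue, then switched to chloride-free gluconate buffer. Chloride transport was started by chloride-free stimulation solution, with fluorescence read for 15 min.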

[3] = molecular target: T1, CFTR; assay: Membrane Potential Dye, Enteroid Assay A; assay type: cell-based; conditions: Enteroid Assay A; for EC50: read-out: Ent. A EC50
In short: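 Enteroid cells were loaded with methyl oxonol membrane potential dye (plus CaCCinh-A01 and Chicago Sky Blue) for 25 min at room temperature. Chloride transport was started by switching to chloride-free gluconate stimulation solution, with fluorescence read for 15 min. Activity was expressed as % of a triple-combination CFTR modulator control (3 μM, 3 μM, 300 nM acute).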

| SMILES | Ent. B Max Activity ([2]; Enteroid Assay B) | EC50 ([2]; Enteroid Assay B) [nM] | Ent. A Max Activity [3] | EC50 [3] [nM] | Ent. B Max Activity ([2]; Table 9) | EC50 ([2]; Table 9) [nM] | further results |
| --- | --- | --- | --- | --- | --- | --- | --- |
| Cc1cccc(C)c1-c1cc2nc(n1)NS(=O)(=O)c1cncc(n1)C(=O)N[C@H](CC(C)C)CO2 [Compound 70, (11R)-6-(2,6-dimethylphenyl)-11-isobutyl-2,2-dioxo-9-oxa-2λ^6-thia-3,5,12,16,18,19-hexazatricyclo[12.3.1.14,8]nonadeca-1(18),4(19),5,7,14,16-hexaen-13-one] |  |  |  |  | +++ (+++ is >60%) | < 1000 | ring closure, yield after HPLC ([1]; from Cc1cccc(C)c1-c1cc(OC[C@H](N)CC(C)C)nc(NS(=O)(=O)c2cncc(C(=O)O)n2)n1, HATU/DIEA, 18.6 mM, 25.0 °C, 25.0 h): 29% |
| Cc1cccc(C)c1-c1cc2nc(n1)NS(=O)(=O)c1cc(n(C)n1)C(=O)N[C@H](CC(C)C)CO2 [Compound 76, (10R)-15-(2,6-Dimethylphenyl)-10-isobutyl-6-methyl-3,3-dioxo-12-oxa-3λ^6-thia-2,5,6,9,16,17-hexazatricyclo[11.3.1.14,7]octadeca-1(17),4,7(18),13,15-pentaen-8-one] |  |  |  |  | +++ (+++ is >60%) | 1000 to 3000 | ring closure, yield after HPLC ([1]; from Cc1cccc(C)c1-c1cc(OC[C@H](N)CC(C)C)nc(NS(=O)(=O)c2cc(C(=O)O)n(C)n2)n1, HATU/DIEA, 3.1 mM, 25.0 °C, 2.0 h): 33% |

The next lines start with results.

| Ent. B Max Activity ([2]; Enteroid Assay B) | EC50 ([2]; Enteroid Assay B) [nM] | Ent. A Max Activity [3] | EC50 [3] [nM] | Ent. B Max Activity ([2]; Table 9) | EC50 ([2]; Table 9) [nM] | SMILES | further results |
| --- | --- | --- | --- | --- | --- | --- | --- |
| ++ (++ is 30-60%) | < 1000 | +++ (+++ is >600%) | < 1000 |  |  | Cc1cccc(C)c1-c1cc2nc(n1)NS(=O)(=O)c1cccc(c1)C(=O)NC[C@@H](c1ccccc1)O2 [Compound 25, (10R)-6-(2,6-Dimethylphenyl)-2,2-dioxo-10-phenyl-9-oxa-2λ^6-thia-3,5,12,19-tetrazatricyclo[12.3.1.14,8]nonadeca-1(18),4(19),5,7,14,16-hexaen-13-one] | ring closure, yield after HPLC ([1]; from Cc1cccc(C)c1-c1cc(O[C@@H](CN)c2ccccc2)nc(NS(=O)(=O)c2cccc(C(=O)O)c2)n1, HATU/DIEA, 25.9 mM, 25.0 °C, 1.0 h, 2 steps): 23% |
| ++ (++ is 30-60%) | 3000 to 30000 | +++ (+++ is >600%) | 3000 to 30000 |  |  | Cc1cccc(C)c1-c1cc2nc(n1)NS(=O)(=O)c1cccc(c1)C(=O)NC[C@@H](C)O2 [Compound 28, (10R)-6-(2,6-dimethylphenyl)-10-methyl-2,2-dioxo-9-oxa-2λ^6-thia-3,5,12,19-tetrazatricyclo[12.3.1.14,8]nonadeca-1(18),4(19),5,7,14,16-hexaen-13-one] | ring closure, yield after HPLC ([1]; from Cc1cccc(C)c1-c1cc(O[C@H](C)CN)nc(NS(=O)(=O)c2cccc(C(=O)O)c2)n1, HATU/DIEA, 46.7 mM, 25.0 °C, 1.0 h, 2 steps): 46% |
|  |  | +++ (+++ is >600%) | < 1000 |  |  | Cc1cccc(C)c1-c1cc2nc(n1)NS(=O)(=O)c1cccc(c1)C(=O)N[C@H](CC1CC1)CO2 [Compound 114, (11R)-11-(Cyclopropylmethyl)-6-(2,6-dimethylphenyl)-9-oxa-2λ^6-thia-3,5,12,19-tetraazatricyclo[12.3.1.14,8]nonadeca-1(17),4(19),5,7,14(18),15-hexaene-2,2,13-trione] | ring closure, yield after HPLC ([1]; from Cc1cccc(C)c1-c1cc(OC[C@H](N)CC2CC2)nc(NS(=O)(=O)c2cccc(C(=O)O)c2)n1, HATU/TEA, 18.8 mM, 17.0 h): 61% |
